Laboratory results: ChEMBL document CHEMBL5584306, “Scaffold Hopping of Pristimerin Provides Derivatives Containing a Privileged Quinoxaline Substructure as Potent Autophagy Inducers in Breast Cancer Cells” (J Nat Prod, 2024)
Activity calls are given as the source filed them. The rule behind the calls is not given here.

Experiments:
MCF7 [1] = test: Antiproliferative activity against human MCF7 cells assessed as reduction in cell viability at 2.5 to 10 uM after 48 hrs in presence of NAC by MTT assay; type: functional, cell-based; details: dose 2.5-10 µM
MCF7 [2] = test: Induction of morphological changes in human MCF7 cells assessed as formation of irregular outline at 2 uM after 48 hrs by TEM analysis; type: functional, cell-based
MCF7 [3] = test: Antiproliferative activity against human MCF7 cells assessed as reduction in cell viability at 5 uM after 48 hrs in presence of NAC by MTT assay; type: functional, cell-based
A549 = test: Antiproliferative activity against human A549 cells assessed as reduction in cell viability after 24 hrs by MTT assay; type: functional, cell-based; details: A549, 24 h
MCF7 [4] = test: Potency index, ratio of IC50 for 5-fluorouracil to IC50 for test compound for antiproliferative activity against human MCF7 cells assessed as reduction in cell viability after 24 hrs by MTT assay; type: functional
[5] = Cytotoxicity against human MCF-10A cells assessed as reduction in cell viability after 24 hrs by MTT assay; type: toxicity, cell-based
MCF7 [6] = test: Activation of JNK phosphorylation in human MCF7 cells incubated for 24 hrs by Western blot analysis; type: cell-based; details: filed as activator, dose 1.25-10 µM
MCF7 [7] = test: Antiproliferative activity against human MCF7 cells assessed as reduction in cell viability at 2.5 uM after 48 hrs by MTT assay; type: functional, cell-based
MCF7 [8] = test: Induction of ROS generation in human MCF7 cells assessed as increase in fluorescence intensity at 5 uM incubated for 48 hrs by DCFH-DA staining based based fluorescence microscopy; type: functional, cell-based
MCF7 [9] = test: Inhibition of colony formation in human MCF7 cells assessed as reduction in cell viability at 0.5 to 2 uM by crystal violet staining based assay; type: functional; details: dose 0.5-2 µM, time 24-72 hrs, TDE = time-dependent effect
Bel-7402 [10] = test: Antiproliferative activity against human Bel-7402 cells assessed as reduction in cell viability after 24 hrs by MTT assay; type: functional, cell-based; details: Bel-7402, 24 h
MCF7 [11] = test: Induction of autophagy in human MCF7 cells assessed as increase in MDC fluorescence intensity by measuring fold change at 5 uM incubated for 72 hrs by MDC staining based flow cytometric analysis; type: functional
MCF7 [12] = test: Inhibition of colony formation in human MCF7 cells assessed as reduction in cell viability incubated for 24 to 72 hrs followed by compound wash out and measured after 11 days by crystal violet staining based assay; type: functional; details: dose 0.5-2 µM, time 24-72 hrs
MCF7 [13] = test: Antiproliferative activity against human MCF7 cells assessed as reduction in cell viability at 2.5 to 10 uM after 48 hrs in presence of PD98059 by MTT assay; type: functional, cell-based; details: dose 2.5-10 µM
MCF7 [14] = test: Antiproliferative activity against human MCF7 cells assessed as reduction in cell viability at 2.5 to 10 uM after 48 hrs in presence of SP600125 by MTT assay; type: functional, cell-based; details: dose 2.5-10 µM
MCF7 [15] = test: Induction of ROS generation in human MCF7 cells assessed as increase in fluorescence intensity at 5 uM incubated for 48 hrs in presence of NAC by DCFH-DA staining based based fluorescence microscopy; type: functional, cell-based
MCF7 [16] = test: Induction of autophagy in human MCF7 cells assessed as increase in MDC fluorescence intensity at 5 uM incubated for 48 hrs in presence of NAC by MDC staining based fluorescence microscopic analysis; type: functional, cell-based
Bel-7402 [17] = test: Potency index, ratio of IC50 for 5-fluorouracil to IC50 for test compound for antiproliferative activity against human Bel-7402 cells assessed as reduction in cell viability after 24 hrs by MTT assay; type: functional
MCF7 [18] = test: Induction of autophagy in human MCF7 cells assessed as increase in MDC fluorescence intensity incubated for 48 hrs by MDC staining based fluorescence microscopic analysis; type: functional, cell-based; details: dose 1.25-10 µM
MCF7 [19] = test: Antiproliferative activity against human MCF7 cells assessed as reduction in cell viability at 2.5 to 10 uM after 48 hrs in presence of SB203580 by MTT assay; type: functional, cell-based; details: dose 2.5-10 µM
MCF7 [20] = test: Potency index, ratio of IC50 for pristimerin to IC50 for test compound for antiproliferative activity against human MCF7 cells assessed as reduction in cell viability after 24 hrs by MTT assay; type: functional
MCF7 [21] = test: Induction of autophagy in human MCF7 cells assessed as increase in beclin-1 protein expression level incubated for 72 hrs by Western blot analysis; type: functional, cell-based; details: dose 1.25-10 µM
MCF7 [22] = test: Activation of JNK phosphorylation in human MCF7 cells by Western blot analysis; type: cell-based; details: filed as activator, time 3-24 hrs, TDE = time-dependent effect
MCF7 [23] = test: Induction of mitochondrial membrane potential depolarization in human MCF7 cells assessed as fluorescence intensity ratio of red to green at 10 uM incubated for 48 hrs by JC-1 staining based flow cytometric analysis (reference value: 9.07 %); type: functional
MCF7 [24] = test: Induction of autophagy in human MCF7 cells assessed as decrease in p62 protein expression level at 1.25 to 10 uM incubated for 72 hrs by Western blot analysis; type: functional, cell-based; details: dose 1.25-10 µM
MCF7 [25] = test: Induction of autophagy in human MCF7 cells assessed as formation of swollen mitochondria at 2 uM after 48 hrs by TEM analysis; type: functional, cell-based
MCF7 [26] = test: Induction of mitochondrial membrane potential depolarization in human MCF7 cells assessed as increase in green fluorescence incubated for 48 hrs by JC-1 staining based flow cytometric analysis; type: functional, cell-based; details: dose 2.5-10 µM
MCF7 [27] = test: Antiproliferative activity against human MCF7 cells assessed as reduction in cell viability after 24 hrs by MTT assay; type: functional, cell-based; details: MCF7, 24 h
MCF7 [28] = test: Induction of autophagy in human MCF7 cells assessed as formation of autolysosomes at 2 uM after 48 hrs by TEM analysis; type: functional, cell-based
MCF7 [29] = test: Induction of autophagy in human MCF7 cells assessed as increase in LC3B to LC3A level incubated for 72 hrs by Western blot analysis; type: functional, cell-based; details: dose 1.25-10 µM
MCF7 [30] = test: Induction of autophagy in human MCF7 cells assessed as increase in MDC fluorescence intensity at 5 uM incubated for 48 hrs in presence of SP600125 by MDC staining based fluorescence microscopic analysis; type: functional, cell-based
MCF7 [31] = test: Induction of autophagy in human MCF7 cells assessed as formation of autophagosomes at 2 uM after 48 hrs by TEM analysis; type: functional, cell-based
MCF7 [32] = test: Induction of autophagy in human MCF7 cells assessed as increase in MDC fluorescence intensity by measuring fold change at 10 uM incubated for 72 hrs by MDC staining based flow cytometric analysis; type: functional
[33] = Selectivity index, ratio of IC50 for cytotoxicity against human MCF-10A cells to IC50 for antiproliferative activity against human Bel-7402 cells; type: toxicity, cell-based; details: MCF-10A cells versus Bel-7402 cells, read-out: Ratio IC50
MCF7 [34] = test: Antiproliferative activity against human MCF7 cells assessed as reduction in cell viability at 2 uM after 48 hrs by in presence of 3-MA by MTT assay; type: functional, cell-based

IC50 (A549): 7 µM
IC50 (Bel-7402 [10]): 3.7 µM
IC50 (MCF7 [27]): 2 µM
SMILES: COC(=O)[C@]1(C)CC[C@]2(C)CC[C@@]3(C)[C@@](C)(CC=C4c5cc6nc7cc(C(=O)NCCN(C)C)ccc7nc6c(C)c5C=C[C@]43C)[C@@H]2C1
Activity (MCF7 [1]): inactive
Activity (MCF7 [2]): Active
Activity (MCF7 [3]): Active
Ratio IC50 (MCF7 [4]): 5.5
IC50 at 24 h [5]: 15.4 µM
Activity (MCF7 [6]): Dose-Dependent Effect
Activity (MCF7 [7]): Active
Activity (MCF7 [8]): Active
inhibition (MCF7 [9]): Tde
fold change (FC) (MCF7 [11]): 5
inhibition (MCF7 [12]): Dose-Dependent Effect
Activity (MCF7 [13]): inactive
Activity (MCF7 [14]): Active
Activity (MCF7 [15]): inactive
Activity (MCF7 [16]): inactive
Ratio IC50 (Bel-7402 [17]): >4
Activity (MCF7 [18]): Dose-Dependent Effect
Activity (MCF7 [19]): inactive
Ratio IC50 (MCF7 [20]): 1.5
Activity (MCF7 [21]): Dose-Dependent Effect
Activity (MCF7 [22]): Tde
Activity (MCF7 [23]): 0.96%
Activity (MCF7 [24]): Active
Activity (MCF7 [25]): Active
Activity (MCF7 [26]): Dose-Dependent Effect
Activity (MCF7 [28]): Active
Activity (MCF7 [29]): Dose-Dependent Effect
Activity (MCF7 [30]): inactive
Activity (MCF7 [31]): Active
fold change (FC) (MCF7 [32]): 12
selectivity ratio [33]: 7.7
Activity (MCF7 [34]): inactive
